Read-outs that look alike come from different tables or passages of the source.
What was measured:
[1] = molecular target: T1, αvβ3 integrin receptors (Homo sapiens, UniProt P05106+P06756); experiment: 18F-fluciclatide autoradiography of carotid endarterectomy sections; format: binding
T1 construct: from tissue; host or cells: human carotid endarterectomy specimens (frozen sections)
Description: Carotid endarterectomy specimens (online supplementary data) were fresh frozen and sectioned in cryosection medium. Both atheromatous and non-atheromatous segments were fixed, stained with H&E and examined by immunohistochemistry for smooth muscle actin, CD31, CD68 and αvβ3 integrin receptor expression before digital image capture (Axioscan .Z1, Zeiss, UK). Image analysis was performed on ImageJ32 software (National Institutes of Health, Bethesda, Maryland, USA). Staining was expressed as a percentage of the total plaque area and with an object size set threshold applied at 20×10 pixels, to limit counting to cell-sized objects. The density of cell staining in the endarterectomy tissue was expressed as cells per mm^2.[18]
Autoradiography was performed to identify the precise localisation of 18F-fluciclatide binding in atherosclerotic tissue. Carotid sections were bathed in a solution of 18F-fluciclatide (1 kBq/mL) for 60 min and rinsed with phosphate buffer solution. To rule out non-specific radiotracer uptake, an un-labelled highly concentrated solution of fluciclatide was added to bind competitively with the αvβ3 integrin receptors. 18F-Fluciclatide binding was imaged using a FujiFilm FLA-5100 Fluorescent Image Analyser (Raytek Scientific, Sheffield, UK). […]
antibody, clone LM609 (Millipore) for 30 min at room temperature. After washing, the sections were incubated with Envision Flex (DAKO, K5007) for 30 min at room temperature, followed by incubation with diaminobenzamine (Sigma) for 10 min. The slides were finally counterstained with hematoxylin and digitally imaged (Axioscan.Z1, Zeiss, UK).
Clinical PET systems have limited resolution. To gain more detailed information about the precise localization of 18F-fluciclatide binding in atherosclerotic tissue, we undertook autoradiography. The 20 μm frozen sections adjacent to those used for immunohistochemical analysis were warmed to room-temperature and bathed in a solution of 18F-fluciclatide at a concentration close to in vivo imaging concentrations (1 kBq/mL) for 60 minutes and then rinsed with phosphate buffer solution. An unlabeled highly concentrated solution of fluciclatide was added to selected slides in order to competitively bind to αvβ3 to assess for non-specific tracer uptake. A freshly blanked phosphor screen was then placed over the slides and an overnight exposure undertaken. The screen was read using a FujiFilm FLA-5100 Fluorescent Image Analyser (Raytek Scientific Limited, Sheffield, UK). Sections were then manually registered and examined for co-localization with histological markers of atherosclerotic disease

[2] = molecular target: aortic atheroma (αvβ3 integrin) (Homo sapiens, UniProt P05106+P06756)
Sequence of aortic atheroma (αvβ3 integrin) (P06756 31-889 limits assumed): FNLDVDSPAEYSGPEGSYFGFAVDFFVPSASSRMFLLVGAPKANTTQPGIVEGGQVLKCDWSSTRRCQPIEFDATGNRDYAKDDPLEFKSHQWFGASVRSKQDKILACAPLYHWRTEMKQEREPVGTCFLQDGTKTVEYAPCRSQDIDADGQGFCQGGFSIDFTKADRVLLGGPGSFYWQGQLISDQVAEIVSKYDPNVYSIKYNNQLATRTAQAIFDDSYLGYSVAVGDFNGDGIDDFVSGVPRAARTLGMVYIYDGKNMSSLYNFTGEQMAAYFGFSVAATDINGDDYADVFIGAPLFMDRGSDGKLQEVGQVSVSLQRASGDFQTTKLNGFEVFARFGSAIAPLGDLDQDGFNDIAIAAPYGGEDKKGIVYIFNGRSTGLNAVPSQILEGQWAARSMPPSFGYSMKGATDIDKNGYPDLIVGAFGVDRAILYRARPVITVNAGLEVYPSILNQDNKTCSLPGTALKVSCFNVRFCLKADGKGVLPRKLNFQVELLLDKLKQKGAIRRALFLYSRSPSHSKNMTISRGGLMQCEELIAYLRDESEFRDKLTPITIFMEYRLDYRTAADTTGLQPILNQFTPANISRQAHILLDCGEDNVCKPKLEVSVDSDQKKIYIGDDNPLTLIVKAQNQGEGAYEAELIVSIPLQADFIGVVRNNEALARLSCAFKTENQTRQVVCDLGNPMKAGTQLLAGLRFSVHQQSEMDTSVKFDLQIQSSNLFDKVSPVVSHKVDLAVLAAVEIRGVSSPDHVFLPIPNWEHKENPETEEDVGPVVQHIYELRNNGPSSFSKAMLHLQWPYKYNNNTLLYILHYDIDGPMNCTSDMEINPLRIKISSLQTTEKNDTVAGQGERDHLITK
Sequence of aortic atheroma (αvβ3 integrin) (P06756 891-1048 partner limits assumed): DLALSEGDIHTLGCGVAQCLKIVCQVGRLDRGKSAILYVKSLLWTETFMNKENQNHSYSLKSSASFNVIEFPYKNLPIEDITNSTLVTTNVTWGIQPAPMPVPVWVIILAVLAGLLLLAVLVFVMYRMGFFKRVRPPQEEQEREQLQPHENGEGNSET
Sequence of aortic atheroma (αvβ3 integrin) (P05106 27-788): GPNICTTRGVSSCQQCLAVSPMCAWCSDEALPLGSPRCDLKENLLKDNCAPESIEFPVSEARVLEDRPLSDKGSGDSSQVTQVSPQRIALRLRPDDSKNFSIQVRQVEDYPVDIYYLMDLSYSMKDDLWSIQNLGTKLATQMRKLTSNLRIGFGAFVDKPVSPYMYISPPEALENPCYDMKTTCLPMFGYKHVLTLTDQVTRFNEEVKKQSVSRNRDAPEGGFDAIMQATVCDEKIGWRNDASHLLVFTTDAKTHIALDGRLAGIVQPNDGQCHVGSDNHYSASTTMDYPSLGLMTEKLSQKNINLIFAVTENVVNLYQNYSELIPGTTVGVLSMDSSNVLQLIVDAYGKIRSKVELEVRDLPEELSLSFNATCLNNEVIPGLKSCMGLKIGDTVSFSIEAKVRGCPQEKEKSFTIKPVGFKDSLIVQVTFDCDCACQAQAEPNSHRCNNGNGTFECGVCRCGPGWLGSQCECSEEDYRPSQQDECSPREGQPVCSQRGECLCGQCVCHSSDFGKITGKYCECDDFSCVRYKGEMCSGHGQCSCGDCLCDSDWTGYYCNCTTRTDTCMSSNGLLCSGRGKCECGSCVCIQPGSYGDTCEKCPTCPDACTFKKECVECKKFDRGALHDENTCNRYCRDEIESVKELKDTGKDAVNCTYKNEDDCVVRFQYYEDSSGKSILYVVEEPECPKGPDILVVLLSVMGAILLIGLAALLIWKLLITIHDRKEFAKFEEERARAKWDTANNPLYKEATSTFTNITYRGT
Description: (§1) All patients in the imaging cohort underwent PET-CT imaging of the thorax with a hybrid scanner (Biograph mCT, Siemens Medical Systems, Erlangen, Germany) at the Clinical Research Imaging Centre, University of Edinburgh. Subjects were administered a target dose of 230 MBq 18F-fluciclatide. An attenuation correction CT scan (non-enhanced 120 kV and 50 mA, 3 mm slices) was performed prior to PET acquisition. To define tracer pharmacodynamics and the optimum timing of scanning, dynamic PET imaging of the thorax was performed in the initial 20 patients in three-dimensional (3-D) mode using a single bed position for 70 min.
Kinetic analysis was performed on the dynamic PET studies to investigate the pharmacodynamics of 18F-fluciclatide uptake within atheroma. […] In all patients, static electrocardiogram-gated PET images were reconstructed in diastole (40–70 min postinjection, 50%–75% of the R-R interval, Ultra-HD, 2 iterations, 21 subsets, zoom ×2, 200 pixels). Images were analysed by experienced observers blinded to the demographic data (WJ, AV) using an OsiriX workstation (OsiriX V.6.0 64-bit; OsiriX Imaging Software, Geneva, Switzerland). PET images were fused with the attenuation correction CT, and regions of interest drawn around the thoracic aorta on serial axial slices just beyond the discernible adventitial border. Aortic uptake was assessed in three regions: the ascending thoracic aorta (from the level of mid-right pulmonary artery up to the last slice where the aorta maintained its circular cross-sectional appearance), the descending thoracic aorta (the region extending from the tip of the diaphragm up to the last circular slice) and the aortic arch (the region of the aorta connecting the ascending and descending aorta). Within these regions, mean and maximum tracer activities were measured using standard uptake values (SUV; the decay corrected tissue concentration of the tracer divided by the injected dose per body weight, kBq/mL) and corrected for mean radiotracer blood pool activity to provide a mean of the TBRmax (mean TBRmax).[5 19 20] […]

[3] = molecular target: αvβ3 integrin in thoracic aortic atheroma (Homo sapiens, UniProt P05106+P06756)
Sequence of αvβ3 integrin in thoracic aortic atheroma (P06756 31-889 limits assumed): as the sequence (P06756 31-889 limits assumed) above
Sequence of αvβ3 integrin in thoracic aortic atheroma (P06756 891-1048 partner limits assumed): as the sequence (P06756 891-1048 partner limits assumed) above
Sequence of αvβ3 integrin in thoracic aortic atheroma (P05106 27-788): as the sequence (P05106 27-788) above
Description: as §1
Kinetic analysis was performed on the dynamic PET studies to investigate the pharmacodynamics of 18F-fluciclatide uptake within atheroma. […] In all patients, static electrocardiogram-gated PET images were reconstructed in diastole (40–70 min postinjection, 50%–75% of the R-R interval, Ultra-HD, 2 iterations, 21 subsets, zoom ×2, 200 pixels). […] PET images were fused with the attenuation correction CT, and regions of interest drawn around the thoracic aorta on serial axial slices just beyond the discernible adventitial border. Aortic uptake was assessed in three regions: the ascending thoracic aorta (from the level of mid-right pulmonary artery up to the last slice where the aorta maintained its circular cross-sectional appearance), the descending thoracic aorta (the region extending from the tip of the diaphragm up to the last circular slice) and the aortic arch (the region of the aorta connecting the ascending and descending aorta). Within these regions, mean and maximum tracer activities were measured using standard uptake values (SUV; the decay corrected tissue concentration of the tracer divided by the injected dose per body weight, kBq/mL) and corrected for mean radiotracer blood pool activity to provide a mean of the TBRmax (mean TBRmax).[5 19 20] […] In a substudy of 10 randomly selected subjects, images were assessed independently by two experienced observers and the interobserver reproducibility of 18F-fluciclatide SUV and TBR measurements assessed.
Continuous data were tested for normality visually and with the D’Agostino-Pearson omnibus test. Continuous data were presented as median (IQR) and compared using Pearson’s or Spearman’s correlation or Wilcoxon signed-rank test as appropriate.

[4] = set-up: species or system human; conditions: in vivo
From the text: A total of 46 subjects underwent PET imaging with CT angiography (age 66±10 years, 74% male; table 1) following injection of 229 (IQR 217–237) […] 18F-fluciclatide. Of the 46 subjects recruited, 19 had suffered a recent MI (unstable cohort), and 27 had imaging evidence of aortic atherosclerosis on CT but no recent cardiovascular events (stable cohort: 6 with stable angina and 21 with subclinical disease who were asymptomatic with no prior cardiovascular events). […] The groups were well matched for gender (p=0.97) and body mass index (p=0.39), and were both characterised by high prevalence of atherosclerotic risk factors, with more smokers in the unstable group (p<0.001) and more patients with hypertension in the stable group (p=0.02).

T1 sequence (P06756 31-889 limits assumed): as the sequence (P06756 31-889 limits assumed) above
T1 sequence (P06756 891-1048 partner limits assumed): as the sequence (P06756 891-1048 partner limits assumed) above
T1 sequence (P05106 27-788): as the sequence (P05106 27-788) above

## fluciclatide [reference compound]
[1]; un-labelled highly concentrated solution added to compete at αvβ3
  Blocking of 18F-fluciclatide binding by un-labelled fluciclatide: effectively blocked

## 18F-fluciclatide
[2]; 2-tissue irreversible Patlak model, t* 20 min, over the selected acquisition time
  Nature of ligand-receptor binding by Patlak modelling: irreversible ligand-receptor binding
[2]; human, in vivo, iv
  Blood pool clearance half-life: about 10 min
[2]; in vivo
  Time at which activity within aortic atheroma reaches plateau: 40 to 70 min
[3]; 40–70 min postinjection
  TBRmax range in aortic atheroma: 1.08–1.68
[3]; All patients, median (IQR)
  Total aortic uptake (mean TBRmax), current smokers: 1.32
  Total aortic uptake (mean TBRmax), not current smokers: 1.29 (1.19–1.39)
  Total aortic uptake (mean TBRmax), with established ischaemic heart disease: 1.34 (1.22–1.42)
  Total aortic uptake (mean TBRmax), with hypercholesterolaemia: 1.34 (1.21–1.42)
  Total aortic uptake (mean TBRmax), with hypertension: 1.33 (1.19–1.39)
  Total aortic uptake (mean TBRmax), without diabetes mellitus: 1.29 (1.19–1.38)
  Total aortic uptake (mean TBRmax), without established ischaemic heart disease: 1.25 (1.19–1.35)
  Total aortic uptake (mean TBRmax), without hypercholesterolaemia: 1.27 (1.19–1.34)
  Total aortic uptake (mean TBRmax), without hypertension: 1.29 (1.20–1.40)
[3]; Stable cohort, median (IQR)
  Total aortic uptake (mean TBRmax), with diabetes mellitus: 1.37 (1.28–1.58)
  Total aortic uptake (mean TBRmax), with established ischaemic heart disease: 1.37 (1.37–1.42)
  Total aortic uptake (mean TBRmax), with hypercholesterolaemia: 1.36
  Total aortic uptake (mean TBRmax), with hypertension: 1.27 (1.21–1.38)
  Total aortic uptake (mean TBRmax), without diabetes mellitus: 1.29 (1.19–1.37)
  Total aortic uptake (mean TBRmax), without hypertension: 1.33 (1.19–1.38)
[3]; Unstable atherosclerosis (n=19, recent MI), median (IQR)
  Aortic Arch (mean TBRmax): 1.29
[3]; comparison p=0.08
  TBRmax on standard analysis, subjects without visible uptake on Patlak analysis: 1.19±0.03
[3]; n=7
  TBRmax on standard analysis, subjects with uptake present on Patlak analysis: 1.32±0.05
[1]; carotid atheroma, ex vivo
  Non-specific binding on autoradiography: no evidence of non-specific binding
[1]; ex vivo autoradiography, 1 kBq/mL, 60 min
  18F-fluciclatide uptake in regions of carotid endarterectomy specimen without visible atheroma: did not demonstrate 18F-fluciclatide uptake
[1]; ex vivo carotid sections bathed in 1 kBq/mL for 60 min, atheromatous regions
  18F-fluciclatide binding in carotid plaque on autoradiography: focal 18F-fluciclatide binding in regions of advanced atherosclerosis
[4]
  Adverse events following administration: No adverse events were reported
  Average total radiation dose per participant: 15 mSv
